Reference: patent US20230083012A1, “DIHYDROPYRIMIDINE DERIVATIVES AND USES THEREOF IN THE TREATMENT OF HBV INFECTION OR OF HBV-INDUCED DISEASES” (priority 2019, published 2023)
Where two headings read alike, the source gives them in different places.

Columns and labels:
[1] = tested on: HBV; experiment: Anti-HBV activity in HepG2.2.15 cells (HBV DNA in culture medium by qPCR); type: cell-based; details: Hepatitis B virus, HepG2.2.15, 144 h
Summary of the method: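 Secreted HBV DNA was measured by real-time PCR after 6-day compound exposure of HepG2.2.15 cells (2% FBS, 37 °C, re-dosed after 3 days), giving EC50 from 8-point 1:3 series starting at 10 or 1 uM. Cytotoxicity (CC50) run separately at lower cell density, top 100 uM.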

[2] = Cytotoxicity determination in HepG2.2.15 cells (CCK-8 cell viability); type: cell-based; details: human, 6 days treatment, CCK-8 assay, highest concentration 100 uM
Summary of the method: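 Viability measured by CCK-8 absorbance (450 nm, 630 nm reference, 2.5 h at 37° C) after six days of treatment, medium and compound renewed on day 3. Top concentration 100 uM, eight threefold dilutions in triplicate; cells plated at 5,000/well in 2% FBS medium; CC50 derived.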

[3] = HepG2.2.15 cells, 6 days treatment, HBV DNA in culture medium quantified by real-time PCR, read-out: EC50

Structure (SMILES)	EC50 [1, 3] [nM]	CC50 at 6 days [2] [nM]	EC50 [1] [nM]
CCOC(=O)C1=C(CN2CC(F)(F)[C@H]3[C@@H]2CCN3CC(C)(C)C(=O)O)NC(c2nccs2)=N[C@H]1c1cccc(F)c1C (relative stereo) [Compound 1A, 3-(4-(((S)-5-(ethoxycarbonyl)-6-(3-fluoro-2-methylphenyl)-2-(thiazol-2-yl)-3,6-dihydropyrimidin-4-yl)methyl)-6,6-difluorohexahydropyrrolo[3,2-b]pyrrol-1(2H)-yl)-2,2-dimethylpropanoic acid]	1.3	15000	
CCOC(=O)C1=C(CN2CC(F)(F)[C@@H]3C(=O)N(CC(C)(C)C(=O)O)C[C@@H]32)NC(c2nccs2)=N[C@H]1c1cccc(F)c1Cl (single isomer, unassigned) [Compound 43, 3-((cis)-1-((6-(2-chloro-3-fluorophenyl)-5-(ethoxycarbonyl)-2-(thiazol-2-yl)-3,6-dihydropyrimidin-4-yl)methyl)-3,3-difluoro-4-oxohexahydropyrrolo[3,4-b]pyrrol-5(1H)-yl)-2,2-dimethylpropanoic acid]	4.1	50200	
CCOC(=O)C1=C(CN2CC(F)(F)[C@H]3[C@@H]2CC(=O)N3[C@H]2CC[C@H](C(=O)O)CC2)NC(c2nccs2)=N[C@H]1c1cccc(F)c1C (single isomer, unassigned) [Compound 158B]	52.6	16600	
CCOC(=O)C1=C(CN2CC(F)(F)[C@H]3[C@@H]2CCN3C[C@@H](C)C(=O)O)NC(c2nccs2)=N[C@H]1c1ccc(F)cc1Cl (single isomer, unassigned) [Compound 135A, 3-((cis)-4-((6-(2-chloro-4-fluorophenyl)-5-(ethoxycarbonyl)-2-(thiazol-2-yl)-3,6-dihydropyrimidin-4-yl)methyl)-6,6-difluorohexahydropyrrolo[3,2-b]pyrrol-1(2H)-yl)-2-methylpropanoic acid]	2.4	25900	
CCOC(=O)C1=C(CN2CC(F)(F)[C@@H]3CN(C(C)(C)C(=O)O)C[C@@H]32)NC(c2nccs2)=N[C@H]1c1cccc(F)c1C (single isomer, unassigned) [Compound 195]	40.3	96600	
CCOC(=O)C1=C(CN2CC(F)(F)C3C2CCN3CC(=O)O)NC(c2nccs2)=N[C@H]1c1cccc(F)c1C (stereo in doubt) [Compound 6, 2-((cis)-4-(((S)-5-(ethoxycarbonyl)-6-(3-fluoro-2-methylphenyl)-2-(thiazol-2-yl)-3,6-dihydropyrimidin-4-yl)methyl)-6,6-difluorohexahydropyrrolo-[3,2-b]pyrrol-1(2H)-yl)acetic acid]	10.4	37200	
CCOC(=O)C1=C(CN2CC(F)(F)[C@H]3[C@@H]2CN(C(C)=O)N3CCC(C)(C)C(=O)O)NC(c2nccs2)=N[C@H]1c1cccc(F)c1Cl (single isomer, unassigned) [Compound 81B, 4-((cis)-2-acetyl-4-((6-(2-chloro-3-fluorophenyl)-5-(ethoxycarbonyl)-2-(thiazol-2-yl)-3,6-dihydropyrimidin-4-yl)methyl)-6,6-difluorohexahydropyrrolo[3,2-c]pyrazol-1(2H)-yl)-2,2-dimethylbutanoic acid]	13	35900	
CCOC(=O)C1=C(CN2CC(F)(F)[C@H]3[C@@H]2CCN3C[C@H]2C[C@H](C(=O)O)C2)NC(c2nccs2)=N[C@H]1c1cccc(F)c1C (single isomer, unassigned) [Compound 143A]	1.1	19200	
CCOC(=O)C1=C(CN2CC(F)(F)[C@H]3[C@@H]2CCN3S(N)(=O)=O)NC(c2nccs2)=N[C@H]1c1cccc(F)c1C (single isomer, unassigned) [Compound 34]	12	14300	
CCOC(=O)C1=C(CN2CC(F)(F)[C@@H]3[C@H]2CN(C)N3CCC(C)(C)C(=O)O)NC(c2nccs2)=N[C@@H]1c1ccc(F)c(F)c1C (single isomer, unassigned) [Compound 93, 4-(4-((6-(3,4-difluoro-2-methylphenyl)-5-(ethoxycarbonyl)-2-(thiazol-2-yl)-3,6-dihydropyrimidin-4-yl)methyl)-6,6-difluoro-2-methylhexahydropyrrolo[3,2-c]pyrazol-1(2H)-yl)-2, ethylbutanoic acid]	12	5400	
CCOC(=O)C1=C(CN2CCC3(F)C(=O)N(CC(C)(C)C(=O)O)CC23)NC(c2nccs2)=N[C@H]1c1cccc(F)c1C (stereo in doubt) [Compound 3, 3-((cis)-1-(((S)-5-(ethoxycarbonyl)-6-(3-fluoro-2-methylphenyl)-2-(thiazol-2-yl)-3,6-dihydropyrimidin-4-yl)methyl)-3a-fluoro-4-oxohexahydropyrrolo[3,4-b]pyrrol-5(1H)-yl)-2,2-dimethylpropanoic acid]	20.2	63100	
CCOC(=O)C1=C(CN2CC(F)(F)[C@H]3[C@@H]2CCN3C[C@@H](CC)C(=O)O)NC(c2nccs2)=N[C@@H]1c1ccc(F)nc1C (single isomer, unassigned) [Compound 122A, 2-(((cis)-4-((5-(ethoxycarbonyl)-6-(6-fluoro-2-methylpyridin-3-yl)-2-(thiazol-2-yl)-3,6-dihydropyrimidin-4-yl)methyl)-6,6-difluorohexahydropyrrolo[3,2-b]pyrrol-1(2H)-yl)methyl)butanoic acid]	6	> 100000	
CCOC(=O)C1=C(CN2CC(F)(F)[C@@H]3CN(S(=O)(=O)NC(C)=O)C[C@@H]32)NC(c2nccs2)=N[C@H]1c1cccc(F)c1C (single isomer, unassigned) [Compound 32]	3.4	31800	
CCOC(=O)C1=C(CN2CC(F)(F)[C@@H]3[C@H]2CN(C(N)=O)N3CCC(C)(C)C(=O)O)NC(c2nccs2)=N[C@H]1c1cccc(F)c1C (single isomer, unassigned) [Compound 76A]	11	28200	
CCOC(=O)C1=C(CN2CC(F)(F)C3C2CN(C(C)=O)N3CCC(CC)C(=O)O)NC(c2nccs2)=N[C@H]1c1cccc(F)c1C (some centres unmarked) [Compound 78]	49	70300	
CCOC(=O)C1=C(CN2CC(F)(F)[C@@H]3[C@H]2CN(C(=O)C(F)F)N3CCC(C)(C)C(=O)O)NC(c2nccs2)=N[C@H]1c1cccc(F)c1C (single isomer, unassigned) [Compound 75]		22600	40
COC(=O)C1=C(CN2CC(F)(F)[C@@H]3[C@H]2CON3CCC(C)(C)C(=O)O)NC(c2nccs2)=N[C@H]1c1cccc(F)c1Cl (single isomer, unassigned) [Compound 170, (cis)-4-(4-((6-(2-chloro-3-fluorophenyl)-5-(methoxycarbonyl)-2-(thiazol-2-yl)-3,6-dihydropyrimidin-4-yl)methyl)-6,6-difluorohexahydro-1H-pyrrolo[3,2-c]isoxazol-1-yl)-2,2-dimethylbutanoic acid]	8	> 25000	
CCOC(=O)C1=C(CN2CC(F)(F)[C@@H]3[C@H]2CN(C)N3CCC(C)(C)C(=O)O)NC(c2nccs2)=N[C@@H]1c1ccc(F)nc1C (single isomer, unassigned) [Compound 96]	50	> 100000	
CCOC(=O)C1=C(CN2CC(F)(F)[C@H]3[C@@H]2CCN3[C@H]2C[C@@H](CC(=O)O)C2)NC(c2nccs2)=N[C@H]1c1cccc(F)c1C (single isomer, unassigned) [Compound 123A]	8	18600	
